Measurements reported in the supplement of paper PMC11208160.

Test: recombinant barcode read abundance after kanamycin selection (control-corrected) (log10(CPM+1)); higher = more efficient recombination; sequences stand for … in AGTGCAGAGAAAATCGGCCAGTTTTCTCTGCCTGCAGTCCGCATGCCGT…AGATTTATGCAGCGGACTGCCTTTCTCCCAAAGTGATAAACCGGACAGTATCATGGACCGGTTTTCCCGGTAATCCGTATTTGCAAGGTTGGTTTCACT; site = the 11-nt target
How it was run: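 Recombination efficiency comes from barcode counts at recombinant junctions, converted to counts per million, averaged and corrected against the control. Values appear as log10(CPM+1). They were obtained from a pooled E. coli screen in which each oligo paired a target with an IS621 bridge RNA target-binding loop, and cells were plated in duplicate on chloramphenicol/ampicillin LB agar or on chloramphenicol/ampicillin/kanamycin with 0.1 mM IPTG.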
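Also: IS621 recombinase and bridge RNA in Escherichia coli cells.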

Row | Sequence | recombinant barcode read abundance (log10)
1 | ATGAAGCCTTGGGTTCTAACCTGTTGCCT (site GTGAAGCCTAG) | 0.177
2 | ATGAAGCCTTGGGTTCTAACCTGTTGCCT (site TTGAAGCCTAG) | 0.503
3 | ATGAGCTCTTGGGTTCTAACCTGTTGCTA (site ATGAGCTCTTA) | 1.12
4 | ATGAGCTCTTGGGTTCTAACCTGTTGCTA (site ATGAGGTCTGA) | 0.0495
5 | ATGAGTCCTTGGGTTCTAACCTGTTGCAA (site ATGAGTCCTTT) | 1.25
6 | ATGAGTCCTTGGGTTCTAACCTGTTGCAA (site TGAGAGACTAC) | 0.0172
7 | ATGATACCTTGGGTTCTAACCTGTTGCCT (site AAGATACCTAG) | 0.157
8 | ATGATACCTTGGGTTCTAACCTGTTGCCT (site ATGATACCTAG) | 1.84
9 | ATGCAAACTTGGGTTCTAACCTGTTGCCT (site ATGCAAACTAG) | 1.31
10 | ATGCAAACTTGGGTTCTAACCTGTTGCCT (site ATGCAACCTAG) | 0.0759
11 | ATGCAAACTTGGGTTCTAACCTGTTGCCT (site ATGCAAGCTAG) | 0.653
12 | ATGCAAACTTGGGTTCTAACCTGTTGCCT (site ATGCAATCTAG) | 0.151
13 | ATGCACGCTTGGGTTCTAACCTGTTGCCT (site ATGCACGCTAG) | 1.81
14 | ATGCACGCTTGGGTTCTAACCTGTTGCCT (site TATATGACTCC) | 0.036
15 | ATGCCAACTTGGGTTCTAACCTGTTGCCT (site ATGCCAACTAG) | 0.327
16 | ATGCCAACTTGGGTTCTAACCTGTTGCCT (site ATGCCCACTAG) | 0.059
17 | ATGCCAACTTGGGTTCTAACCTGTTGCCT (site ATGCCGACTAG) | 0.204
18 | ATGCCAACTTGGGTTCTAACCTGTTGCCT (site ATGCCTACTAG) | 0.00977
19 | ATGCCCTCTTGGGTTCTAACCTGTTGCCT (site ATGACCTCTAG) | 0.688
20 | ATGCCCTCTTGGGTTCTAACCTGTTGCCT (site ATGCCCTCTAG) | 2.07
21 | ATGCCCTCTTGGGTTCTAACCTGTTGCCT (site ATGGCCTCTAG) | 0.0962
22 | ATGCCCTCTTGGGTTCTAACCTGTTGCCT (site ATGTCCTCTAG) | 0.0521

Row | Sequence | recombinant barcode read abundance (log10)
23 | ATGCCTACTTGGGTTCTAACCTGTTGCCT (site ATGCCAACTAG) | 0.0174
24 | ATGCCTACTTGGGTTCTAACCTGTTGCCT (site ATGCCCACTAG) | 0.0532
25 | ATGCCTACTTGGGTTCTAACCTGTTGCCT (site ATGCCGACTAG) | 0.0715
26 | ATGCCTACTTGGGTTCTAACCTGTTGCCT (site ATGCCTACTAG) | 0.337
27 | ATGCCTCCTTGGGTTCTAACCTGTTGCTT (site ATGCCTCCTAA) | 0.165
28 | ATGCCTCCTTGGGTTCTAACCTGTTGCTT (site GAAGGAGCTCT) | 0.07
29 | ATGCGTTCTTGGGTTCTAACCTGTTGCCT (site AGGTGTTCTAG) | 0.203
30 | ATGCGTTCTTGGGTTCTAACCTGTTGCCT (site ATGCGTTCTAG) | 1.73
31 | ATGCTTGCTTGGGTTCTAACCTGTTGCCA (site ATGCTTGCTTG) | 0.187
32 | ATGCTTGCTTGGGTTCTAACCTGTTGCCA (site TGTGCAACTCA) | 0.299
33 | ATGGATACTTGGGTTCTAACCTGTTGCCT (site ATGGATACTAG) | 2.26
34 | ATGGATACTTGGGTTCTAACCTGTTGCCT (site ATGTACACTAG) | 0.22
35 | ATGGATCCTTGGGTTCTAACCTGTTGCGT (site AGGGATCCTAC) | 0.758
36 | ATGGATCCTTGGGTTCTAACCTGTTGCGT (site ATGGATCCTAC) | 2.77
37 | ATGGCCTCTTGGGTTCTAACCTGTTGCCT (site ATGACCTCTAG) | 0.822
38 | ATGGCCTCTTGGGTTCTAACCTGTTGCCT (site ATGCCCTCTAG) | 0.0852
39 | ATGGCCTCTTGGGTTCTAACCTGTTGCCT (site ATGGCCTCTAG) | 2.2
40 | ATGGCCTCTTGGGTTCTAACCTGTTGCCT (site ATGTCCTCTAG) | 0.0804
41 | ATGGGCCCTTGGGTTCTAACCTGTTGCTA (site ATGGGCCCTAA) | 0.362
42 | ATGGGCCCTTGGGTTCTAACCTGTTGCTA (site ATGGGCCCTCA) | 1.17
43 | ATGGGCCCTTGGGTTCTAACCTGTTGCTA (site ATGGGCCCTGA) | 0.288
44 | ATGGGCCCTTGGGTTCTAACCTGTTGCTA (site ATGGGCCCTTA) | 2.17

Row | Sequence | recombinant barcode read abundance (log10)
45 | ATGGGCCCTTGGGTTCTAACCTGTTGCTT (site ATGGGCCCTAA) | 2.01
46 | ATGGGCCCTTGGGTTCTAACCTGTTGCTT (site ATGGGCCCTCA) | 0.00714
47 | ATGGGCCCTTGGGTTCTAACCTGTTGCTT (site ATGGGCCCTGA) | 0.0928
48 | ATGGGCCCTTGGGTTCTAACCTGTTGCTT (site ATGGGCCCTTA) | 0.243
49 | ATGGTACCTTGGGTTCTAACCTGTTGCTA (site ATGGTACCTTA) | 2.34
50 | ATGGTACCTTGGGTTCTAACCTGTTGCTA (site GATAACGCTAG) | 0.247
51 | ATGGTGACTTGGGTTCTAACCTGTTGCCT (site ATGGTGACTAG) | 1.21
52 | ATGGTGACTTGGGTTCTAACCTGTTGCCT (site ATGGTGCCTAG) | 0.296
53 | ATGGTGACTTGGGTTCTAACCTGTTGCCT (site ATGGTGGCTAG) | 0.0522
54 | ATGGTGACTTGGGTTCTAACCTGTTGCCT (site ATGGTGTCTAG) | 0.0769
55 | ATGTCCTCTTGGGTTCTAACCTGTTGCCA (site ATGTCCTCTTG) | 1.02
56 | ATGTCCTCTTGGGTTCTAACCTGTTGCCA (site GCTCGGGCTCC) | 0
57 | ATGTCTACTTGGGTTCTAACCTGTTGCAG (site ATGTCTACTCT) | 0.673
58 | ATGTCTACTTGGGTTCTAACCTGTTGCAG (site TGCCTATCTAA) | 0.219
59 | ATGTGCACTTGGGTTCTAACCTGTTGCAG (site ATGTGCACTCT) | 2.15
60 | ATGTGCACTTGGGTTCTAACCTGTTGCAG (site CTGTGCACTCG) | 0.63
61 | ATTAAATCTTGGGTTCTAACCTGTTGCCT (site ATTAAATCTAG) | 0.0334
62 | ATTAAATCTTGGGTTCTAACCTGTTGCCT (site ATTAATCCTAG) | 0.485
63 | ATTAACCCTTGGGTTCTAACCTGTTGCCT (site AATAACCCTAG) | 0.0681
64 | ATTAACCCTTGGGTTCTAACCTGTTGCCT (site ACTAACCCTAG) | 0.0136
65 | ATTAACCCTTGGGTTCTAACCTGTTGCCT (site AGTAACCCTAG) | 0.085
66 | ATTAACCCTTGGGTTCTAACCTGTTGCCT (site ATTAACCCTAG) | 1.21

Row | Sequence | recombinant barcode read abundance (log10)
67 | ATTAACTCTTGGGTTCTAACCTGTTGCCT (site ATTAACTCTAG) | 0.944
68 | ATTAACTCTTGGGTTCTAACCTGTTGCCT (site CGAGTGACTCT) | 0.0163
69 | ATTAAGACTTGGGTTCTAACCTGTTGCCT (site ATAAAGACTAG) | 0.423
70 | ATTAAGACTTGGGTTCTAACCTGTTGCCT (site ATCAAGACTAG) | 0.484
71 | ATTAAGACTTGGGTTCTAACCTGTTGCCT (site ATGAAGACTAG) | 0.11
72 | ATTAAGACTTGGGTTCTAACCTGTTGCCT (site ATTAAGACTAG) | 1.35
73 | ATTCGAGCTTGGGTTCTAACCTGTTGCGC (site ATTCGAGCTGC) | 2.03
74 | ATTCGAGCTTGGGTTCTAACCTGTTGCGC (site ATTCGGGCTAC) | 0.0665
75 | ATTCGAGCTTGGGTTCTAACCTGTTGCGG (site ATTCGAGCTCC) | 1.97
76 | ATTCGAGCTTGGGTTCTAACCTGTTGCGG (site GTTCGAGCTCC) | 0.0863
77 | ATTGAGACTTGGGTTCTAACCTGTTGCTT (site ATTGAGACTAA) | 1.33
78 | ATTGAGACTTGGGTTCTAACCTGTTGCTT (site GAGAGTCCTTG) | 0.0837
79 | ATTGGGGCTTGGGTTCTAACCTGTTGCAG (site ATTAGGGCTCG) | 0.266
80 | ATTGGGGCTTGGGTTCTAACCTGTTGCAG (site ATTGGGGCTCT) | 2.38
81 | ATTTAAGCTTGGGTTCTAACCTGTTGCCT (site ATTTAAGCTAG) | 0.498
82 | ATTTAAGCTTGGGTTCTAACCTGTTGCCT (site GAGCGGCCTCT) | 0.0137
83 | ATTTCTTCTTGGGTTCTAACCTGTTGCCT (site ATATCTTCTAG) | 0.113
84 | ATTTCTTCTTGGGTTCTAACCTGTTGCCT (site ATTTCTTCTAG) | 0.0847
85 | ATTTGCACTTGGGTTCTAACCTGTTGCCT (site ATTTGAACTAG) | 0.14
86 | ATTTGCACTTGGGTTCTAACCTGTTGCCT (site ATTTGCACTAG) | 0.184
